Experimental data: patent EP4640678A1, “NOVEL OXO-PYRIDINE COMPOUND, PREPARATION METHOD THEREFOR, AND USE THEREOF” (Chengdu Shibeikang Biomedical Technology Co., Ltd., priority 2022, dated 2024)

Key:
human plasma = assay: determination of in-vitro anticoagulant effect in human plasma (APTT); format: biochemical; conditions: for APTT prolongation rate (%): healthy human plasma, 37°C for 3 min; for EC150: estimated from the APTT test results in human plasma
Protocol: After centrifugation, the plasma sample was pipetted and frozen (-80°C) for later use.
A proper amount of a compound was weighed and prepared into a 10-100 mM stock solution using 100% of DMSO (the specific concentration of the stock solution was determined based on the properties of the compound); and then working solutions with various concentrations (specifically: 1 µM, 3 µM and 10 µM, respectively) were prepared from the stock solution using the healthy human plasma as a solution and thoroughly mixed. After incubation at 37°C for 3 min, the sample was placed on an instrument (model: CS-2000I) to determine APTT.
GraphPad Prism software was used for analysis to calculate the APTT prolongation rate at each concentration.

human FXla = human FXla (Homo sapiens, UniProt P03951); assay: Activity assay of coagulation factor FXla inhibitor (S-2366 substrate, OD405nm); format: biochemical; conditions: 5 concentrations 200 nM to 0.32 nM, 0.8 nM (2X) human FXla working solution
Excerpt: X: log value of compound concentration; Y: inhibition rate (%).

[1] = Study of pharmacokinetics in rats; format: in vivo; conditions: rat, po; male SD rats, intragastrical gavage, 30 mg/kg, plasma
Protocol: Each group was administered via intragastrical gavage at a dose of 30 mg/kg.
About 0.5 mL of blood was collected, placed in an EDTA-K2 tube, centrifuged to separate plasma, and stored at -80°C. The drug plasma concentration was measured using a liquid chromatography-tandem mass spectrometry analysis system (LC-MS/MS), and pharmacokinetic parameters, such as AUC0-t, Cmax, Tmax and t1/2, were calculated based on the drug plasma concentration data using DAS 2.0 software.

[2] = Effect of continuous in-vivo administration on general condition and food intake of rats; conditions: 500 mg/kg PO once a day for 14 days, within 24 hours after the last administration; for food intake compared with the blank group: SD rats
Excerpt: Each group had 10 rats, equally distributed by gender. The rats received drug administrations via oral gavage once a day for 14 consecutive days, following the administration regimen outlined in the table below. The blank group was given an equal volume of a vehicle. […] Table 4 Continuous administration regimen

Sequence of human FXla (P03951 388-625 limits assumed): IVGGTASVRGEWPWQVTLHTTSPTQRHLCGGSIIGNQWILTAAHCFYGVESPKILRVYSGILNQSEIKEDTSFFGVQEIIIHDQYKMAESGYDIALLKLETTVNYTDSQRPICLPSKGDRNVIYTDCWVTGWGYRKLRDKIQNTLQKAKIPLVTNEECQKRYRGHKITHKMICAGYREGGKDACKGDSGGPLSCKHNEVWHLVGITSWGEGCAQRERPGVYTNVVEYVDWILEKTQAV
Sequence of human FXla (P03951 19-387 partner limits assumed): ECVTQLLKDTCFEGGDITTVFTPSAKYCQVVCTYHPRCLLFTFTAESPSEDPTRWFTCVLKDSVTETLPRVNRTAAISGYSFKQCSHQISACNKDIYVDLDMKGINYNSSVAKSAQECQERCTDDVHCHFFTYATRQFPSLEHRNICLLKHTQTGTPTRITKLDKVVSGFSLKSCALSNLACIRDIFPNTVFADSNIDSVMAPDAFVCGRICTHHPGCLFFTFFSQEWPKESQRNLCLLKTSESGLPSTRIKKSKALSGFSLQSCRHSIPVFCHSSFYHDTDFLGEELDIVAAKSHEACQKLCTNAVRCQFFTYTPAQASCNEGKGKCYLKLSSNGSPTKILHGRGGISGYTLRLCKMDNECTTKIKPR

## CC[C@@H](C(=O)Nc1ccc(C(=O)O)c(Cl)c1)n1cc(OC)c(-c2cc(Cl)ccc2-n2cc(C(F)(F)F)nn2)cc1=O [Compound 2, (S)-2-chloro-4-(2-(4-(5-chloro-2-(4-(trifluoromethyl)-1H-1,2,3-triazol-1-yl)phenyl)-5-methoxy-2-oxopyridin-1(2H)-yl)butanamido)benzoic acid]
Human plasma; 3 µM
  APTT prolongation rate (%): 88.9%
Human plasma; 10 µM
  APTT prolongation rate (%): 124.8%
Human plasma
  EC150: less than 1 µM
Human FXla
  IC50: 0.91 nM
[1]
  AUC(0-t): 85.9 µg·h/mL
  Cmax: 6740 ng/mL
  Tmax: 3.94 h
  half-life: 7.75 h
[2]
  Food intake (g, mean±SD): 27.22 ± 1.33 g
  food intake compared with the blank group: essentially the same food intake as the blank group

## CC[C@@H](C(=O)Nc1ccc(C(=O)O)c(OC)c1)n1cc(OC)c(-c2cc(Cl)ccc2-n2cc(C(F)(F)F)nn2)cc1=O [Compound 6, (S)-4-(2-(4-(5-chloro-2-(4-(trifluoromethyl)-1H-1,2,3-triazol-1-yl)phenyl)-5-methoxy-2-oxopyridin-1(2H)-yl)butanamido)-2-methoxybenzoic acid]
Human plasma; 3 µM
  APTT prolongation rate (%): 78.0%
Human plasma; 10 µM
  APTT prolongation rate (%): 135.1%
Human plasma
  EC150: less than 1 µM
Human FXla
  IC50: 0.96 nM
[1]
  AUC(0-t): 89.8 µg·h/mL
  Cmax: 6440 ng/mL
  Tmax: 4.1 h
  half-life: 7.08 h

## [2H]C([2H])([2H])Oc1cn([C@@H](CC)C(=O)Nc2ccc(C(N)=O)c(Cl)c2)c(=O)cc1-c1cc(Cl)ccc1-n1cc(C(F)(F)F)nn1 [Compound 22, (S)-2-chloro-4-(2-(4-(5-chloro-2-(4-(trifluoromethyl)-1H-1,2,3-triazol-1-yl)phenyl)-5-(methoxy-d3)-2-oxopyridin-1(2H)-yl)butanamido)benzamide]
Human plasma; 1 µM
  APTT prolongation rate (%): 35.6%
Human plasma; 3 µM
  APTT prolongation rate (%): 62.0%
Human plasma; 10 µM
  APTT prolongation rate (%): 105.9%
Human FXla
  IC50: 4.23 nM

## [2H]C([2H])([2H])Oc1cn([C@@H](CC)C(=O)Nc2ccc(C(=O)NC)c(F)c2)c(=O)cc1-c1cc(Cl)ccc1-n1cc(C(F)(F)F)nn1 [Compound 25, (S)-4-(2-(4-(5-chloro-2-(4-(trifluoromethyl)-1H-1,2,3-triazol-1-yl)phenyl)-5-(methoxy-d3)-2-oxopyridin-1(2H)-yl)butanamido)-2-fluoro-N-methylbenzamide]
Human plasma; 3 µM
  APTT prolongation rate (%): 76.7%
Human plasma; 10 µM
  APTT prolongation rate (%): 158.5%
Human plasma
  EC150: less than 1 µM
Human FXla
  IC50: 1.87 nM
[1]
  AUC(0-t): 159 µg·h/mL
  Cmax: 26500 ng/mL
  Tmax: 2.3 h
  half-life: 1.9 h
[2]
  Food intake (g, mean±SD): 27.00 ± 1.42 g
  food intake compared with the blank group: essentially the same food intake as the blank group

## [2H]C([2H])([2H])NC(=O)c1ccc(NC(=O)[C@H](CC)n2cc(OC)c(-c3cc(Cl)ccc3-n3cc(C(F)(F)F)nn3)cc2=O)cc1F [Compound 26, (S)-4-(2-(4-(5-chloro-2-(4-(trifluoromethyl)-1H-1,2,3-triazol-1-yl)phenyl)-5-(methoxy)-2-oxopyridin-1(2H)-yl)butanamido)-2-fluoro-N-(methyl-d3)benzamide]
Human plasma; 3 µM
  APTT prolongation rate (%): 78.3%
Human plasma; 10 µM
  APTT prolongation rate (%): 159.5%
Human plasma
  EC150: less than 1 µM
Human FXla
  IC50: 1.15 nM
[1]
  AUC(0-t): 129 µg·h/mL
  Cmax: 21000 ng/mL
  Tmax: 2.7 h
  half-life: 3.33 h
[2]
  Food intake (g, mean±SD): 26.49 ± 1.21 g
  food intake compared with the blank group: essentially the same food intake as the blank group

## [2H]C([2H])([2H])NC(=O)c1ccc(NC(=O)[C@H](CC)n2cc(OC([2H])([2H])[2H])c(-c3cc(Cl)ccc3-n3cc(C(F)(F)F)nn3)cc2=O)cc1F [Compound 27, (S)-4-(2-(4-(5-chloro-2-(4-(trifluoromethyl)-1H-1,2,3-triazol-1-yl)phenyl)-5-(methoxy-d3)-2-oxopyridin-1(2H)-yl)butanamido)-2-fluoro-N-(methyl-d3)benzamide]
Human plasma; 3 µM
  APTT prolongation rate (%): 79.7%
Human plasma; 10 µM
  APTT prolongation rate (%): 142.5%
Human plasma
  EC150: less than 1 µM
Human FXla
  IC50: 2.98 nM
[1]
  AUC(0-t): 291 µg·h/mL
  Cmax: 27200 ng/mL
  Tmax: 4.43 h
  half-life: 4.01 h
[2]
  Food intake (g, mean±SD): 27.08 ± 1.19 g
  food intake compared with the blank group: essentially the same food intake as the blank group
